Experimental findings from article PMC12190640 (2025) are described below.

The assay relates to 37Cy3-74Cy5-riboSAM (RNA, riboswitch, Cy3-modified U at 37, Cy5-modified U at 74) GGGAAGAAAUAACAAUCAACGACGUAUCAUUGUGCCUCGCUUUCCGCGGGGCGAUAAGUCCUGAAGAAAGGGAUGAUAUGACAUAAGAACAUCGG
As to the kind of experiment: smFRET (TIRF). Conditions: 50 mM Na+, 10 mM Tris-HCl pH 8.0, 25 °C, 0.5 mM SAM.

For the compound `C[S+](CC[C@H](N)C(=O)O)C[C@H]1O[C@@H](n2cnc3c(N)ncnc32)[C@H](O)[C@@H]1O` (some centres unmarked), the binding entry runs as follows: (2 mM Mg2+, stable EFRET ~0.8 population 18.5% to 37.6%) “yes”; (no Mg2+, no significant structural transition, same at 0.05 mM Mg2+) “weak”.
